Where “and” joins values, the source holds several entries; their conditions need not be identical. Equal entries are not always repeated. Values belong to the compound of their own block, whether it stands above or below them.
How the values were obtained:
[1] = instrument: TW, calibrated with polyalanine
[2] = instrument: TW, calibrated with phosphatidylcholines (ESI+) and phosphatidylethanolamines (ESI-)
[3] = instrument: TW, calibrated with phosphatidylcholines (ESI+) and phosphatidylethanolamines (ESI-); remark: listed apart in the source
[4] = instrument: DT, stepped-field
[5] = instrument: DT, single field
[6] = instrument: DT, single field, calibrated with Agilent tune mix (Agilent)
[7] = instrument: DT, stepped-field; remark: listed apart in the source

SMILES: Nc1ncnc2c1ncn2[C@@H]1O[C@H](COP(=O)(O)O)[C@@H](O)[C@H]1O [AMP]
- collision cross section (N2) ([1]; [M+H]+): 167 Å²

SMILES: N[C@@H](CC(=O)O)C(=O)O [Aspartic acid]
- collision cross section (N2) ([1]; [M+H]+): 122 Å²

SMILES: C[N+](C)(C)C[C@H](O)CC(=O)[O-] [Carnitine]
- collision cross section (N2) ([1]; [M+H]+): 130 Å²

SMILES: CCCCCCCCCCCC=CCC(=O)OC[C@H](CO[C@@H]1O[C@H](CO[C@H]2O[C@H](CO)[C@H](O)C(O)C2O)[C@H](O)C(O)C1O)OC(=O)CC=CCCCCCCCCCCC (stereo partly specified) [DGDG(30:2)]
- collision cross section (N2) ([2]; [M+NH4]+): 295.4 Å²
- collision cross section (N2) ([2]; [M+Na]+): 291.7 Å²

SMILES: CCCCCCCCCCCCC=CCC=CCC(=O)OC[C@H](CO[C@@H]1O[C@H](CO[C@H]2O[C@H](CO)[C@H](O)C(O)C2O)[C@H](O)C(O)C1O)OC(=O)CC=CCCCCCCCCCCCCCC (stereo partly specified) [DGDG(35:1)]
- collision cross section (N2) ([2]; M+NH4]+): 317.4 Å²

SMILES: CCCCCCCCCCCCCCCCCC(=O)OC[C@H](CO[C@@H]1O[C@H](CO[C@H]2O[C@H](CO)[C@H](O)C(O)C2O)[C@H](O)C(O)C1O)OC(=O)CCCCCCCCCCCCCCCCC (stereo partly specified) [DGDG(36:0)]
- collision cross section (N2) ([2]; [M+NH4]+): 326.8 Å²

SMILES: O=P(O)(O)OC[C@H](O)CO [Glycerol monophosphate]
- collision cross section (N2) ([1]; [M+Na]+): 132 Å²

SMILES: CCCCCCCCCCCCCCCCCCCC(=O)OC(COC(=O)CCCCCCCCCCCCCC)COP(=O)([O-])OCC(O)COC(=O)C(N)CCCC[NH3+] (stereo unspecified) [LysPG(35:0)]
- collision cross section (N2) ([2]; [M+H]+): 305.4 Å²

SMILES: CSC[C@H]1O[C@@H](n2cnc3c(N)ncnc32)[C@H](O)[C@@H]1O [Methylthioadenosine]
- collision cross section (N2) ([1]; [M+H]+): 167 Å²

SMILES: NCCC[C@H](N)C(=O)O [Ornithine]
- collision cross section (N2) ([1]; [M+H]+): 121 Å²

SMILES: CCCCCCCCCCCCCCCCC(=O)OC[C@H](COP(=O)(O)O)OC(=O)CCCCCCCCCCCC [PA(30:0)]
- collision cross section (N2) ([2]; [M-H]-): 244.9 Å²

SMILES: CCCCCCCCCCCCCCCCCCC(=O)OC[C@H](COP(=O)(O)O)OC(=O)CCCCCCCCCCCC [PA(32:0)]
- collision cross section (N2) ([2]; [M-H]-): 251.1 Å²

SMILES: CCCCCCCCCCCCCCCCCCC(=O)O[C@H](COC(=O)CCCCCCCCCCCCCCCC)COP(=O)(O)O [PA(36:0)]
- collision cross section (N2) ([2]; [M-H]-): 264.1 Å²

SMILES: Nc1ccc(C(=O)O)cc1 [PABA]
- collision cross section (N2) ([1]; [M+H]+): 131 Å²

SMILES: CCCCCCCCCCCCCCCCCCCCC(=O)O[C@H](COC(=O)CCCCCCCCCCCC)COP(=O)([O-])OCC[N+](C)(C)C [PC(34:0)]
- collision cross section (N2) ([3]; [M+H]+): 285.8 Å²
- collision cross section (N2) ([4]; [M+H]+): 301.1 Å²
- collision cross section (N2) ([5]; [M+H]+): 289.07 Å² and 290.41 Å²
- collision cross section (N2) ([5]; [M+Na]+): 288.39 Å²
- collision cross section (N2) ([6]; [M+H]+): 289.7 Å²

SMILES: CCCCCC/C=C\CCCCCCCCCC(=O)OC[C@H](COP(=O)([O-])OCC[N+](C)(C)C)OC(=O)CCCCCCCCCCCCCCC [PC(34:1)]
- collision cross section (N2) ([3]; [M+CH3COO]-): 289.1 Å²
- collision cross section (N2) ([3]; [M+H]+): 285.3 Å²
- collision cross section (N2) ([4]; [M+H]+): 300.3 Å²
- collision cross section (N2) ([5]; [M+H]+): 285.62 Å² and 287.54 Å²
- collision cross section (N2) ([6]; [M+H]+): 287.1 Å²

SMILES: CCCCC/C=C\C/C=C\CCCCCCCCCC(=O)O[C@H](COC(=O)CCCCCCC/C=C\C/C=C\CCCCC)COP(=O)(O)OCCN [PE(38:4)]
- collision cross section (N2) ([3]; [M+H]+): 280.4 Å²
- collision cross section (N2) ([3]; [M-H]-): 271.1 Å²
- collision cross section (N2) ([4]; [M-H]-): 278.4 Å² and 277.4 Å²
- collision cross section (N2) ([6]; [M+H]+): 282.9 Å²
- collision cross section (N2) ([7]; [M+Na]+): 290 Å²

SMILES: CCCCC/C=C\C/C=C\CCCCCCCC(=O)O[C@H](COC(=O)CCCCCCCCCCCC)COP(=O)(O)OC[C@@H](O)CO [PG(31:2)]
- collision cross section (N2) ([2]; [M-H]-): 257.9 Å²

SMILES: CCCCCCCC/C=C\CCCCCCCCCC(=O)O[C@H](COC(=O)CCCCCCCCCCCC)COP(=O)(O)OC[C@@H](O)CO [PG(33:1)]
- collision cross section (N2) ([4]; [M-H]-): 273.7 Å²
- collision cross section (N2) ([6]; [M-H]-): 266.4 Å²
- collision cross section (N2) ([2]; [M-H]-): 267 Å²

SMILES: CCCCCC/C=C\CCCCCCCC(=O)OC[C@H](COP(=O)(O)OC[C@@H](O)CO)OC(=O)CCCCCCCCCCCCCCCCCCC [PG(36:1)]
- collision cross section (N2) ([3]; [M+Na]+): 287.5 Å²
- collision cross section (N2) ([3]; [M-H]-): 275.7 Å²
- collision cross section (N2) ([4]; [M-H]-): 282.9 Å² and 284.1 Å²
- collision cross section (N2) ([6]; [M+H]+): 292 Å²
- collision cross section (N2) ([6]; [M+NH4]+): 292.5 Å²
- collision cross section (N2) ([6]; [M+Na]+): 287.5 Å²
- collision cross section (N2) ([2]; [M-H]-): 275.7 Å²

SMILES: CCCCCCC/C=C\CCCCCCCC(=O)O[C@H](CO/C=C\CCCCCCCCCCCCCC)COP(=O)(O)OC[C@@H](O)CO [PG(p33:1)]
- collision cross section (N2) ([2]; [M-H]-): 265.1 Å²

More lines, now with the values ahead:

- collision cross section (N2) ([2]; [M+NH4]+): 308.5 Å²
- collision cross section (N2) ([2]; [M+Na]+): 306.7 Å²
SMILES: CCCCCCCCCCCCCCCC(=O)OC[C@H](CO[C@@H]1O[C@H](CO[C@H]2O[C@H](CO)[C@H](O)C(O)C2O)[C@H](O)C(O)C1O)OC(=O)CCCCCCCCCCCCCCC (stereo partly specified) [DGDG(32:0)]

- collision cross section (N2) ([2]; [M+H]+): 287.8 Å²
SMILES: CCCCCCCCCCCCCCC(=O)OCC(COP(=O)([O-])OCC(O)COC(=O)C(N)CCCC[NH3+])OC(=O)CCCCCCCCCCCCC (stereo unspecified) [LysPG(29:0)]

- collision cross section (N2) ([2]; [M+H]+): 298.4 Å²
SMILES: CCCCCC/C=C\CCCCCCCCCC(=O)OCC(COP(=O)([O-])OCC(O)COC(=O)C(N)CCCC[NH3+])OC(=O)CCCCCCC/C=C\CCCCCC (stereo unspecified) [LysPG(34:2)]

- collision cross section (N2) ([1]; [M+H]+): 127 Å²
SMILES: NCCCC[C@H](N)C(=O)O [Lysine]

- collision cross section (N2) ([2]; [M+NH4]+): 281.2 Å²
- collision cross section (N2) ([2]; [M+Na]+): 278.6 Å²
SMILES: CC/C=C\C/C=C\C/C=C\CCCCCCCC(=O)OC[C@H](CO[C@@H]1O[C@H](CO)[C@H](O)C(O)C1O)OC(=O)CCCCC/C=C\CCCCCCCC (stereo partly specified) [MGDG(16:1/18:3)]

- collision cross section (N2) ([2]; [M+CH3COO]-): 286.3 Å²
- collision cross section (N2) ([2]; [M+Cl]-): 278.5 Å²
- collision cross section (N2) ([2]; [M+K]+): 282.5 Å²
- collision cross section (N2) ([2]; [M+NH4]+): 284.1 Å²
- collision cross section (N2) ([2]; [M+Na]+): 281 Å²
- collision cross section (N2) ([2]; [M-H]-): 276.2 Å²
SMILES: CC/C=C\C/C=C\C/C=C\CCCCCCCC(=O)OC[C@H](CO[C@@H]1O[C@H](CO)[C@H](O)C(O)C1O)OC(=O)CCCCCCC/C=C\C/C=C\C/C=C\CC (stereo partly specified) [MGDG(18:3/18:3)]

- collision cross section (N2) ([2]; [M-H]-): 251.4 Å²
SMILES: CCCCCCCCCCCCCCCCCCC(=O)OC[C@H](COP(=O)(O)O)OC(=O)CCCCCCCCCCCC [PA(16:0/16:0)]

- collision cross section (N2) ([3]; [M+H]+): 278.8 Å²
- collision cross section (N2) ([4]; [M+H]+): 292.3 Å²
- collision cross section (N2) ([6]; [M+HCOO]-): 283.5 Å²
- collision cross section (N2) ([6]; [M+H]+): 281.8 Å²
- collision cross section (N2) ([7]; [M+K]+): 292.4 Å²
SMILES: CCCCCCCC/C=C\C/C=C\C/C=C\CCCC(=O)OC[C@H](COP(=O)([O-])OCC[N+](C)(C)C)OC(=O)CCCCCCCCCCCCC [PC(34:3)]

- collision cross section (N2) ([3]; [M+H]+): 275.7 Å²
- collision cross section (N2) ([3]; [M-H]-): 267.4 Å²
- collision cross section (N2) ([4]; [M+H]+): 293 Å²
- collision cross section (N2) ([4]; [M-H]-): 276 Å² and 275.9 Å²
- collision cross section (N2) ([6]; [M+H]+): 279.3 Å²
- collision cross section (N2) ([6]; [M+Na]+): 284.6 Å²
- collision cross section (N2) ([6]; [M-H]-): 268.5 Å²
- collision cross section (N2) ([7]; [M+Na]+): 285.7 Å²
SMILES: CCCCC/C=C\C/C=C\CCCCCCCCCC(=O)O[C@H](COC(=O)CCCCCCCCCCCCCCC)COP(=O)(O)OCCN [PE(36:2)]

- collision cross section (N2) ([4]; [M-H]-): 270.4 Å²
- collision cross section (N2) ([7]; [M+Na]+): 279.2 Å²
SMILES: CC/C=C\C/C=C\C/C=C\C/C=C\C/C=C\CCCC(=O)O[C@H](COCCCCCCCCCCCCCCCC)COP(=O)(O)OCCN [PE(o36:5)]

- collision cross section (N2) ([2]; [M-H]-): 255.2 Å²
SMILES: CCCCCCCCCCCCCCCC(=O)O[C@H](COC(=O)CCCCCCCCCCCC)COP(=O)(O)OC[C@@H](O)CO [PG(29:0)]

- collision cross section (N2) ([4]; [M-H]-): 265.6 Å²
- collision cross section (N2) ([2]; [M-H]-): 258.7 Å²
SMILES: CCCCCCCCCCCCCCCCCC(=O)OC[C@H](COP(=O)(O)OC[C@@H](O)CO)OC(=O)CCCCCCCCCCC [PG(30:0)]

- collision cross section (N2) ([2]; [M-H]-): 255 Å²
SMILES: CCCC/C=C\CCCCCCCC(=O)OC[C@H](COP(=O)(O)OC[C@@H](O)CO)OC(=O)CCCCCCC/C=C\CCCCCC [PG(30:2)]

- collision cross section (N2) ([2]; [M-H]-): 262 Å²
SMILES: CCCCCCCCCCCCCCCCCCC(=O)O[C@H](COC(=O)CCCCCCCCCCC)COP(=O)(O)OC[C@@H](O)CO [PG(31:0)]

- collision cross section (N2) ([3]; [M+Na]+): 269.8 Å²
- collision cross section (N2) ([3]; [M-H]-): 261 Å²
- collision cross section (N2) ([2]; [M-H]-): 261.4 Å²
SMILES: CCCC/C=C\CCCCCCCC(=O)OC[C@H](COP(=O)(O)OC[C@@H](O)CO)OC(=O)CCCCCCC/C=C\CCCCCCCC [PG(32:2)]

- collision cross section (N2) ([2]; [M-H]-): 275 Å²
SMILES: CCCCCCCCCCCCCCCCCCCCC(=O)O[C@H](COC(=O)CCCCCCCCCCCCC)COP(=O)(O)OC[C@@H](O)CO [PG(35:0)]

- collision cross section (N2) ([4]; [M-H]-): 280.1 Å²
- collision cross section (N2) ([6]; [M-H]-): 272.7 Å²
- collision cross section (N2) ([2]; [M-H]-): 273.2 Å²
SMILES: CCCC/C=C\CCCCCCCC(=O)OC[C@H](COP(=O)(O)OC[C@@H](O)CO)OC(=O)CCCCCCCCCCCCCCCCCCCC [PG(35:1)]

- collision cross section (N2) ([2]; [M-H]-): 258.5 Å²
SMILES: CCCCC/C=C\CCCCCCCC(=O)O[C@H](CO/C=C\CCCCCCCCCCCCCC)COP(=O)(O)OC[C@@H](O)CO [PG(p31:1)]

- collision cross section (N2) ([2]; [M-H]-): 264.8 Å²
SMILES: CCCCC/C=C\C/C=C\C/C=C\CCCCC(=O)O[C@H](CO/C=C\CCCCCCCCCCCCCC)COP(=O)(O)OC[C@@H](O)CO [PG(p34:3)]

- collision cross section (N2) ([1]; [M+H]+): 145 Å²
SMILES: CC(C)(CO)[C@@H](O)C(=O)NCCC(=O)O [Pantothenic acid]

— the C3SDB collision cross section collection
